Test results as given in patent publication US5491170A, “β-carboxy sulfonamide ACAT inhibitors” (priority 1994, dated 1996).

Tests used:
male Sprague-Dawley rats = assay: APCC: in vivo screen, total cholesterol in rats fed a high fat, high cholesterol diet; parameters: species or system rat (male Sprague-Dawley); conditions: Rattus norvegicus, po, 16 h, 30 mg/kg by gavage, high cholesterol diet (5.5% peanut oil, 1.5% cholesterol, 0.5% cholic acid), dosed 4 PM, sacrificed 8 AM, read-out: APCC (% change TC): percent change in total cholesterol from control animals given vehicle and diet only
Source text: In an in vivo screen designated APCC, male Sprague-Dawley rats (200-225 g body weight) were randomly divided into treatment groups and dosed at 4 PM with either vehicle (CMC/Tween) or suspensions of invention compounds in vehicle. The normal chow diet was then replaced with a high fat, high cholesterol diet (5.5% peanut oil, 1.5% cholesterol, and 0.5% cholic acid). The rats consumed this diet ad libitum during the night and were sacrificed at 8 AM to obtain blood samples for cholesterol analysis using standard procedures. Statistical differences between mean cholesterol values for the same vehicle were determined using analysis of variance followed by Fisher's least significant test. The results of this trial for representative compounds of the present invention also appear in Table I as the percent change in total cholesterol (% TC) from control animals given vehicle and diet only. All compounds in the APCC test reported in Table 1 were administered by gavage at 30 mg/kg.

[1] = target: T1, acyl-CoA: cholesterol acyltransferase (ACAT) (Rattus norvegicus, UniProt Q7TQM4); assay: LAI: in vitro inhibition of ACAT (acylation of cholesterol by radiolabeled oleic acid) in rat liver microsomes; assay type: biochemical
T1 construct: tissue preparation containing rat liver microsomes (designated LAI); from tissue; host or cells: rat liver microsomes
T1 sequence (Q7TQM4 1-524): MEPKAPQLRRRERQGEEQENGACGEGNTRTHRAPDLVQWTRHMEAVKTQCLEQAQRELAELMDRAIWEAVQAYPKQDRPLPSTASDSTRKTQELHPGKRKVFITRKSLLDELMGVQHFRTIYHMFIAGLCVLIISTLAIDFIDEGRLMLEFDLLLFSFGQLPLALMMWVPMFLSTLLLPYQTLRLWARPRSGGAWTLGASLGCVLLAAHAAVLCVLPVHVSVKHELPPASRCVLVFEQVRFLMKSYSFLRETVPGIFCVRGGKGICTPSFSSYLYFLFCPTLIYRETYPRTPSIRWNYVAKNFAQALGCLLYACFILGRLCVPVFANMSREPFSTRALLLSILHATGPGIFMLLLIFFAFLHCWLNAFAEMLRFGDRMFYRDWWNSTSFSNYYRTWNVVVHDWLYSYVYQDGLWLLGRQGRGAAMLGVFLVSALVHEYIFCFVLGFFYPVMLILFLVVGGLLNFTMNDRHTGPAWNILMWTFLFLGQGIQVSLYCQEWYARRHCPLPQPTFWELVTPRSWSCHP
Experimental: The ability of representative compounds of the present invention to inhibit ACAT was measured using an in vitro test more fully described in F. J. Field and R. G. Salone, Biochemica et Biophysica Acta, 712:557-570 (1982). The test assesses the ability of a test compound to inhibit the acylation of cholesterol by oleic acid by measuring the amount of radiolabeled cholesterol oleate formed from radiolabeled oleic acid in a tissue preparation containing rat liver microsomes (designated LAI).

Compound	IC50 [1] [nM]	change in vivo at 30 mg/kg (male Sprague-Dawley rats) [%]
CCCCCCCCCCCCCCSC(=O)CS(=O)(=O)Nc1c(C(C)C)cccc1C(C)C [Example 15, (2,6-Diisopropylphenylsulfamoyl)-thio-acetic Acid S-tetradecyl Ester]		-23
CCCCCCCCCCCCCCOC(=O)CS(=O)(=O)Nc1c(C(C)C)cccc1C(C)C [Example 20, (2,6-Diisopropylphenylsulfamoyl)-acetic Acid Tetradecyl Ester]		-45
CC(C)c1cc(C(C)C)c(OC(=O)CS(=O)(=O)Nc2c(C(C)C)cccc2C(C)C)c(C(C)C)c1 [Example 1, 2,4,6-Triisopropylphenyl(2,6-diisopropylphenylsulfamoyl)acetate]		-19
CCCCCCNC(=O)CS(=O)(=O)Nc1c(C(C)C)cccc1C(C)C [Example 6, 2-(2,6-Diisopropylphenylsulfamoyl)-N-hexyl-acetamide]	> 5000	-16
CCCCCCCCSC(=O)CS(=O)(=O)Nc1c(C(C)C)cccc1C(C)C [Example 11, (2,6-Diisopropylphenylsulfamoyl)-thio-acetic Acid S-octyl Ester]		-32
CCCCCCCCCCOC(=O)CS(=O)(=O)Nc1c(C(C)C)cccc1C(C)C [Example 24, (2,6-Diisopropylphenylsulfamoyl)-acetic Acid Decylester]	> 1000	-16
CCCCCCCCCCCCNC(=O)CS(=O)(=O)Nc1c(C(C)C)cccc1C(C)C [Example 5, 2-(2,6-Diisopropylphenylsulfamoyl)-N-dodecyl-acetamide]		-29
CCCCCCCCN(CCCCCCCC)C(=O)CS(=O)(=O)Nc1c(C(C)C)cccc1C(C)C [Example 3, 2-(2,6-Diisopropylphenylsulfamoyl)-N,N-dioctylacetamide]		-19
CCCCCCCCCCCCSC(=O)CS(=O)(=O)Nc1c(C(C)C)cccc1C(C)C [Example 10, (2,6-Diisopropylphenylsulfamoyl)-thio-acetic Acid S-dodecyl Ester]		-71
CCCCCCCCCCCCC(C)OC(=O)CS(=O)(=O)Nc1c(C(C)C)cccc1C(C)C (centres unmarked) [Example 28, (2,6-Diisopropylphenylsulfamoyl)-acetic Acid 1-methyltridecyl Ester]		-39
CCCCCCCCCCCCOC(=O)CS(=O)(=O)Nc1c(C(C)C)cccc1C(C)C [Example 29, (2,6-Diisopropylphenylsulfamoyl)-acetic Acid Dodecylester]		-34
CCCCCCCCCCCCn1nnc(NC(=O)CS(=O)(=O)Nc2c(C(C)C)cccc2C(C)C)n1 [Example 2, 2-(2,6-Diisopropyl-phenylsulfamoyl)-N-(dodecyl-2-H-tetrazol-5-yl)-acetamide]	1900	-50
CC(C)c1cccc(C(C)C)c1NS(=O)(=O)CC(=O)N(Cc1ccccc1)C(C)C [Example 7, N-Benzyl-N-isopropyl-2-(2,6-diisopropylphenylsulfamoyl)acetamide]		-31
CCOC(=O)CS(=O)(=O)Nc1c(C(C)C)cccc1C(C)C [Example 21, (2,6-Diisopropylphenylsulfamoyl)-acetic Acid Ethyl Ester]	> 1000	2
CC(C)c1cccc(C(C)C)c1NC(=O)CS(=O)(=O)Nc1c(C(C)C)cccc1C(C)C [Example 4, N-(2,6-Diisopropylphenyl)-2-(2,6-diisopropylphenylsulfamoyl)-acetamide]		-51

Now from value to compound, other results behind:

IC50 [1] [nM]	Compound	change in vivo at 30 mg/kg (male Sprague-Dawley rats) [%]
230	CCCCCCCCCCCCSC(=O)CS(=O)(=O)Nc1ccc(F)cc1F [Example 16, (2,4-Diifluorophenylsulfamoyl)-thioacetic Acid S-dodecyl Ester]	-37
> 1000	CC(C)c1cccc(C(C)C)c1NS(=O)(=O)CC(=O)NCC(c1ccccc1)C1CCCC1 (centres unmarked) [Example 9, 2-(2,6-Diisopropylphenylsulfamoyl)-N-(2-cyclopentyl-2-phenylethyl)-acetamide]	
> 1000	CCCCCCCCOC(=O)CS(=O)(=O)Nc1c(C(C)C)cccc1C(C)C [Example 23, (2,6-Diisopropylphenylsulfamoyl)-acetic Acid Octyl Ester]	-4
4200	CC(CCc1ccccc1)COC(=O)CS(=O)(=O)Nc1c(C(C)C)cccc1C(C)C (centres unmarked) [Example 40, (2,6-diisopropylphenylsulfamoyl)-acetic acid, (2-methyl-4-phenylbutyl) ester]	-32
> 1000	CCCCCCOC(=O)CS(=O)(=O)Nc1c(C(C)C)cccc1C(C)C [Example 26, (2,6-Diisopropylphenylsulfamoyl)-acetic Acid Hexyl Ester]	-5
> 1000	CC(C)c1cccc(C(C)C)c1NS(=O)(=O)CC(=O)O [Example 30, (2,6-Diisopropylphenylsulfamoyl)-acetic Acid]	3
570	CCCCCCCCCCCCSC(=O)CS(=O)(=O)Nc1c(OC)cc(OC)cc1OC [Example 17, (2,4,6-Trimethoxyphenylsulfamoyl)-thioacetic Acid S-dodecyl Ester]	-3
> 5000	CC(C)c1cccc(C(C)C)c1NS(=O)(=O)CC(=O)Sc1c(C(C)C)cccc1C(C)C [Example 12, (2,6-Diisopropylphenylsulfamoyl)-thioacetic Acid 2,6-Diisopropylphenyl Ester]	-16
> 5000	Cc1cccc(C)c1SC(=O)CS(=O)(=O)Nc1c(C(C)C)cccc1C(C)C [Example 19, (2,6-Diisopropylphenylsulfamoyl)-thioacetic Acid S-2,6-dimethylphenyl Ester]	3
> 1000	CC(C)c1cc(C(C)C)c(NS(=O)(=O)CC(=O)Oc2c(C(C)C)cccc2C(C)C)c(C(C)C)c1 [Example 31, (2,4,6-Triisopropylphenylsulfamoyl)-acetic Acid, 2,6-Diisopropyl Ester]	-29
17600	CC(C)c1cccc(C(C)C)c1NS(=O)(=O)CC(=O)Oc1c(C(C)C)cccc1C(C)C [Example 22, 2,6,-Diissoproplphenyl(2,6-diisopropylphenylsulfamoyl)acetate]	-7
7600	COc1cc(OC)c(NC(=O)CS(=O)(=O)Nc2c(OC)cc(OC)cc2OC)c(OC)c1 [Example 27, N-(2,4,6-trimethyoxyphenyl)-2-(2,4,6-trimethoxy-phenylsulfamoyl)-acetamide]	5
> 5000	CCCCCCCCCCCCCCCCCCSC(=O)CS(=O)(=O)Nc1c(C(C)C)cccc1C(C)C [Example 18, (2,6-Diisopropylphenylsulfamoyl)-thioacetic Acid S-octadecyl Ester]	-35
> 1000	COc1cc(OC)c(OC(=O)CS(=O)(=O)Nc2c(C(C)C)cccc2C(C)C)c(OC)c1 [Example 25, (2,6-Diisopropylphenylsulfamoyl)-acetic Acid 2,4,6-trimethoxyphenyl Ester]	-6
> 1000	CC(C)c1cccc(C(C)C)c1NS(=O)(=O)CC(=O)NC(c1ccccc1)c1ccccc1 [Example 8, 2-(2,6-Diisopropylphenylsulfamoyl)-N-diphenylmethylacetamide]	
